What all share (type): functional
Details in all cases: route subcutaneous

Assay [1] relates to Mus musculus. The assay is described as follows: Antihyperglycemic activity in C57BL/KsJ db/db mouse assessed as reduction in food intake at 25 mg/kg, sc administered twice a day for 4 days and once on day 5 relative to control. The arrangement: scale not given: the % may be the effect or the level left.
In assay [2] the test system is Mus musculus. Kind of assay: Antihyperglycemic activity in C57BL/KsJ db/db mouse at 25 mg/kg, sc administered twice a day for 4 days and once on day 5 after 60 mins of load injection by insulin suppression test relative to control.
Assay [3] deals with Mus musculus. Kind of assay: Antihyperglycemic activity in C57BL/KsJ db/db mouse assessed as reduction in water consumption at 25 mg/kg, sc administered twice a day for 4 days and once on day 5 relative to control. The arrangement: scale not given: the % may be the effect or the level left.
Assay [4] deals with Mus musculus. Kind of assay: Antihyperglycemic activity in C57BL/KsJ db/db mouse at 25 mg/kg, sc administered twice a day for 4 days once on day 5 immediately after load injection by insulin suppression test relative to control.
In assay [5] the test system is Mus musculus. The assay is described as follows: Antihyperglycemic activity in C57BL/KsJ db/db mouse at 130 mg/kg, sc administered twice a day for 4 days once on day 5 by insulin suppression test relative to control.
Assay [6] has as its system Mus musculus. Kind of assay: Antihyperglycemic activity in C57BL/KsJ db/db mouse at 13 mg/kg, sc administered twice a day for 4 days once on day 5 by insulin suppression test relative to control.
Assay [7] has as its system Mus musculus. Kind of assay: Antihyperglycemic activity in C57BL/KsJ db/db mouse at 5 mg/kg, sc administered twice a day for 4 days once on day 5 after 60 mins of load injection by insulin suppression test relative to control.
The test system of assay [8] is Mus musculus. The assay is described as follows: Antihyperglycemic activity in C57BL/KsJ db/db mouse at 5 mg/kg, sc administered twice a day for 4 days once on day 5 immediately after load injection by insulin suppression test relative to control.

Take `N=C(NCC1CCC(CN)CC1)NCC1CC1` (configuration not stated): the Activity with Mus musculus [1] is listed as -40%; in the assay with Mus musculus [2], -43%; with Mus musculus [3] it was -59%; in the assay with Mus musculus [4], -29%.

For the molecule `CC(C)=CCNC(=N)NCC1CCC(CN)CC1` (configuration not stated), the Activity with Mus musculus [1] is given as -21%; in the assay on Mus musculus [2], -29%; with Mus musculus [3] it was -29%; with Mus musculus [4], -8%.

`CN1CCN(/C(=N\c2ccc(F)cc2)NCCCCCCN)CC1`: the Activity in the assay on Mus musculus [1] is -14%; with Mus musculus [2], -12%; in the assay on Mus musculus [3], -35%; in the assay with Mus musculus [4], -21%.

Regarding `CC(C)=CCNC(=N)NCCCCCN`, the Activity is -41% in the assay on Mus musculus [1], -13% with Mus musculus [2], -57% in the assay with Mus musculus [3] and -15% with Mus musculus [4].

Consider `N=C(NCCCCN)NCCCc1ccccc1`, for which the Activity in the assay on Mus musculus [1] is reported as -33%; in the assay with Mus musculus [2], -8%; in the assay with Mus musculus [3], -44%; in the assay on Mus musculus [4], 12%.

Take `CC(C)CCNC(=N)NCCCCCCN`: the Activity in the assay on Mus musculus [1] is -14%; in the assay on Mus musculus [2] it was -24%; with Mus musculus [3], -24%; in the assay on Mus musculus [4], -17%.

As for `CC(C)=CCNC(=N)NCCCCCCN`, the Activity in the assay with Mus musculus [1] is -19%; in the assay on Mus musculus [2], -13%; with Mus musculus [3], -53%; with Mus musculus [4], -31%.

Consider `CN(C)C(=N)NC(=N)N` [METFORMIN], for which the results for the Activity in the assay with Mus musculus [5] and in the assay on Mus musculus [6] were -22% and -11%, respectively.

Take `N=C(NCCCCCCN)NCC1CC1`: the Activity in the assay on Mus musculus [1] was -19%; with Mus musculus [2] it was -18%; in the assay on Mus musculus [3], -45%; with Mus musculus [4], -42%.

`N=C(NCCCCCCBr)NCC1CC1`: the Activity in the assay on Mus musculus [1] is recorded as -22%; in the assay with Mus musculus [2] it was -20%; in the assay with Mus musculus [3], -30%; in the assay with Mus musculus [4] it was -12%.

Regarding `CC(C)=CCNC(=N)NCCCCN`, the Activity is listed as -37% with Mus musculus [1], -11% in the assay on Mus musculus [2], -53% in the assay with Mus musculus [3] and -13% in the assay with Mus musculus [4].

With `NCCCCCCN/C(=N/c1ccc(F)cc1)N1CCCCC1`, the Activity in the assay with Mus musculus [1] is -22%; with Mus musculus [2] it was -8%; in the assay on Mus musculus [3], -41%; with Mus musculus [4], -15%.

For the molecule `CC(C)=CCNC(=N)N[C@H]1CC[C@H](N)CC1`, the Activity in the assay on Mus musculus [1] is -27%; in the assay with Mus musculus [2], -22%; in the assay with Mus musculus [3] it was -44%; with Mus musculus [4] it was -14%.

Take `CN(CCOc1ccc(CC2SC(=O)NC2=O)cc1)c1ccccn1` (configuration not stated) [ROSIGLITAZONE]: the Activity was -39% with Mus musculus [7] and -29% in the assay with Mus musculus [8].

(Values after ChEMBL document CHEMBL1150352, “Novel substituted aminoalkylguanidines as potential antihyperglycemic and food intake-reducing agents” (2008).)
